*1 amine or outer side, *2 acyl side, *3 side chain or, on linkers, in order; H or OH if unused. Where a SMILES comes first, the peptide text is derived from it. Side-chain parts run from the residue outwards. [ ]: non-standard residue; d: D form. The star is where a group is joined. Isobutyryl(2-(3-CN-5-F-Ph)) = CC(C)(C(=O)*)c1cc(F)cc(C#N)c1; C20 diacid = O=C(O)CCCCCCCCCCCCCCCCCCC(=O)*; γGlu = O=C(O)[C@H](CCC(=O)[*:2])N[*:1]; NMeβAla = CN(CCC(=O)[*:2])[*:1]; X44 = COc1ccc(C(C)(C)C(=O)*)cc1; X15 = O=C(C1(c2cccc(F)c2)CC1)*; X11 = C[C@@H](C(=O)*)c1ccccc1; X78 = CC(C)(C(=O)*)C1CCCCC1; AEEA = NCCOCCOCC(=O)O; Aib = CC(C)(N)C(=O)O; βAla = NCCC(=O)O
Key:
Type in all cases: cell-based
GLP-1 receptor [1] = biological target: T1, GLP-1 receptor (Homo sapiens, UniProt P43220); assay: HitHunter cAMP assay, GLP-1 receptor; details: for EC50: CHO cells stably expressing human GLP-1 receptor, cAMP accumulation, 30 min, read-out: EC50 GLP-1R; for Emax: CHO cells, cAMP, normalized to maximum signal from GLP-1 (high) and DMSO (low), read-out: Emax GLP-1R
T1 sequence (P43220 24-463): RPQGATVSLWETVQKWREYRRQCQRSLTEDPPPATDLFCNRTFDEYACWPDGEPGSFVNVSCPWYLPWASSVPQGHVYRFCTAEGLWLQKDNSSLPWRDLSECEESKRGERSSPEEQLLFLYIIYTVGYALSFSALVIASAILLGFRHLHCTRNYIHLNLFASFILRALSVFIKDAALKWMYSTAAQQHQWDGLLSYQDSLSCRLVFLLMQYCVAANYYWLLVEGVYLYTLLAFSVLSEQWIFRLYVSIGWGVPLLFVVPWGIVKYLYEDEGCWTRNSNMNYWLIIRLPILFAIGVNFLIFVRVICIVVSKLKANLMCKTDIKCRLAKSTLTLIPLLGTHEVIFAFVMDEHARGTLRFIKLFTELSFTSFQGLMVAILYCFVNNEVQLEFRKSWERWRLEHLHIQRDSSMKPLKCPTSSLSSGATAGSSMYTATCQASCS

GIP receptor [2] = biological target: T2, GIP receptor (Homo sapiens, UniProt P48546); assay: HitHunter cAMP assay, GIP receptor; details: for EC50: CHO cells stably expressing GIP receptor, cAMP accumulation, 30 min, read-out: EC50 GIP-1R; for Emax: CHO cells, cAMP, normalized to maximum signal from GIP (high) and DMSO (low), read-out: Emax GIP-1R
T2 sequence (P48546 22-466): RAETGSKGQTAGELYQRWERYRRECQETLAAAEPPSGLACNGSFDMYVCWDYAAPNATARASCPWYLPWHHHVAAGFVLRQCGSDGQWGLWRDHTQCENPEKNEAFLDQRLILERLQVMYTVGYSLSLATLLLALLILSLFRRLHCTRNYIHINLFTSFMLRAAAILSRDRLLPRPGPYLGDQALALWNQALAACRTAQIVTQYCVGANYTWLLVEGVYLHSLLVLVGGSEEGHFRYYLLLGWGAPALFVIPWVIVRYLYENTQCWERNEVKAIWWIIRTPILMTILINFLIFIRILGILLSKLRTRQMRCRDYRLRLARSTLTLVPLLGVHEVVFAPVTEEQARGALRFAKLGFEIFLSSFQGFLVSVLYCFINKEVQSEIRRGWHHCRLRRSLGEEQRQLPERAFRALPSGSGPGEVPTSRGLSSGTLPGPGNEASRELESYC

GIP receptor [3] = biological target: T2, GIP receptor; assay: PathHunter β-arrestin assay, GIP receptor; set-up: host or cells: PathHunter CHO-K1 GIPR β-Arrestin Cell Line; details: β-arrestin-2 recruitment, PathHunter CHO-K1 GIPR β-Arrestin Cell Line, 90 min at 37° C.; normalized to GIP; read-out: GIPR β Arrestin EC50
GLP-1 receptor [4] = biological target: T1, GLP-1 receptor; assay: PathHunter β-arrestin assay, GLP-1 receptor; set-up: host or cells: PathHunter CHO-K1 GLP1R β-Arrestin Cell Line; details: β-arrestin-2 recruitment, PathHunter CHO-K1 GLP1R β-Arrestin Cell Line, 90 min at 37° C.; normalized to GLP-1; read-out: GLP-1R β Arrestin EC50

Row | SMILES | EC50 (GLP-1 receptor [1]) [nM] | Emax (GLP-1 receptor [1]) [%] | EC50 (GIP receptor [2]) [nM] | Emax (GIP receptor [2]) [%] | EC50 (GIP receptor [3]) [nM] | EC50 (GLP-1 receptor [4]) [nM]
1 | CC[C@H](C)[C@H](NC(=O)[C@H](CC(C)C)NC(=O)[C@H](Cc1c[nH]c2ccccc12)NC(=O)[C@H](CCC(N)=O)NC(=O)[C@@H](NC(=O)[C@H](Cc1ccccc1)NC(=O)[C@H](C)NC(=O)[C@H](CCCCNC(=O)COCCOCCNC(=O)COCCOCCNC(=O)CC[C@H](NC(=O)CCCCCCCCCCCCCCCCCCC(=O)O)C(=O)O)NC(=O)[C@H](CCC(N)=O)NC(=O)[C@H](C)NC(=O)[C@@H](NC(=O)[C@H](CCCCN)NC(=O)[C@H](CC(=O)O)NC(=O)[C@H](CC(C)C)NC(=O)C(C)(C)NC(=O)[C@@H](NC(=O)[C@H](CO)NC(=O)[C@H](Cc1ccc(O)cc1)NC(=O)[C@H](CC(=O)O)NC(=O)[C@H](CO)NC(=O)[C@@H](NC(=O)[C@H](Cc1ccccc1)NC(=O)[C@@H](NC(=O)CNC(=O)[C@H](CCC(=O)O)NC(=O)CCN(C)C(=O)C(C)(C)c1cc(F)cc(C#N)c1)[C@@H](C)O)[C@@H](C)O)[C@@H](C)CC)[C@@H](C)CC)C(C)C)C(=O)N[C@@H](C)C(=O)NCC(=O)NCC(=O)N1CCC[C@H]1C(=O)N[C@@H](CO)C(=O)N[C@@H](CO)C(=O)NCC(=O)N[C@@H](C)C(=O)N1CCC[C@H]1C(=O)N1CCC[C@H]1C(=O)N1CCC[C@H]1C(=O)N[C@@H](CO)C(N)=O [Compound 201] ({Isobutyryl(2-(3-CN-5-F-Ph))}-[NMeβAla]EGTFTSDYSI[Aib]LDKIAQK([AEEA-AEEA-γGlu-C20 diacid])AFVQWLIAGGPSSGAPPPS-NH2) | 10 to 100 | 108 | 100 to 1000 | 107 | > 1000 | > 1000
2 | CC[C@H](C)[C@H](NC(=O)[C@H](CC(C)C)NC(=O)[C@H](Cc1c[nH]c2ccccc12)NC(=O)[C@H](CCC(N)=O)NC(=O)[C@@H](NC(=O)[C@H](Cc1ccccc1)NC(=O)[C@H](C)NC(=O)[C@H](CCCCNC(=O)COCCOCCNC(=O)COCCOCCNC(=O)CC[C@H](NC(=O)CCCCCCCCCCCCCCCCCCC(=O)O)C(=O)O)NC(=O)[C@H](CCC(N)=O)NC(=O)[C@H](C)NC(=O)[C@@H](NC(=O)[C@H](CCCCN)NC(=O)[C@H](CC(=O)O)NC(=O)[C@H](CC(C)C)NC(=O)C(C)(C)NC(=O)[C@@H](NC(=O)[C@H](CO)NC(=O)[C@H](Cc1ccc(O)cc1)NC(=O)[C@H](CC(=O)O)NC(=O)[C@H](CO)NC(=O)[C@@H](NC(=O)[C@H](Cc1ccccc1)NC(=O)[C@@H](NC(=O)CNC(=O)[C@H](CCC(=O)O)NC(=O)CCNC(=O)C(C)(C)c1ccc(OC)cc1)[C@@H](C)O)[C@@H](C)O)[C@@H](C)CC)[C@@H](C)CC)C(C)C)C(=O)N[C@@H](C)C(=O)NCC(=O)NCC(=O)N1CCC[C@H]1C(=O)N[C@@H](CO)C(=O)N[C@@H](CO)C(=O)NCC(=O)N[C@@H](C)C(=O)N1CCC[C@H]1C(=O)N1CCC[C@H]1C(=O)N1CCC[C@H]1C(=O)N[C@@H](CO)C(N)=O [Compound 203] ({X44-βAla}-EGTFTSDYSI[Aib]LDKIAQK([AEEA-AEEA-γGlu-C20 diacid])AFVQWLIAGGPSSGAPPPS-NH2) | 0.1 to 1 | 103 | 1 to 10 | 103 | < 1000 | > 1000
3 | CC[C@H](C)[C@H](NC(=O)[C@H](CC(C)C)NC(=O)[C@H](Cc1c[nH]c2ccccc12)NC(=O)[C@H](CCC(N)=O)NC(=O)[C@@H](NC(=O)[C@H](Cc1ccccc1)NC(=O)[C@H](C)NC(=O)[C@H](CCCCNC(=O)COCCOCCNC(=O)COCCOCCNC(=O)CC[C@H](NC(=O)CCCCCCCCCCCCCCCCCCC(=O)O)C(=O)O)NC(=O)[C@H](CCC(N)=O)NC(=O)[C@H](C)NC(=O)[C@@H](NC(=O)[C@H](CCCCN)NC(=O)[C@H](CC(=O)O)NC(=O)[C@H](CC(C)C)NC(=O)C(C)(C)NC(=O)[C@@H](NC(=O)[C@H](CO)NC(=O)[C@H](Cc1ccc(O)cc1)NC(=O)[C@H](CC(=O)O)NC(=O)[C@H](CO)NC(=O)[C@@H](NC(=O)[C@H](Cc1ccccc1)NC(=O)[C@@H](NC(=O)CNC(=O)[C@H](CCC(=O)O)NC(=O)CCNC(=O)[C@H](C)c1ccccc1)[C@@H](C)O)[C@@H](C)O)[C@@H](C)CC)[C@@H](C)CC)C(C)C)C(=O)N[C@@H](C)C(=O)NCC(=O)NCC(=O)N1CCC[C@H]1C(=O)N[C@@H](CO)C(=O)N[C@@H](CO)C(=O)NCC(=O)N[C@@H](C)C(=O)N1CCC[C@H]1C(=O)N1CCC[C@H]1C(=O)N1CCC[C@H]1C(=O)N[C@@H](CO)C(N)=O [Compound 204] ({X11-βAla}-EGTFTSDYSI[Aib]LDKIAQK([AEEA-AEEA-γGlu-C20 diacid])AFVQWLIAGGPSSGAPPPS-NH2) | 1 to 10 | 106 | 10 to 100 | 105 | > 1000 | > 1000
4 | CC[C@H](C)[C@H](NC(=O)[C@H](CC(C)C)NC(=O)[C@H](Cc1c[nH]c2ccccc12)NC(=O)[C@H](CCC(N)=O)NC(=O)[C@@H](NC(=O)[C@H](Cc1ccccc1)NC(=O)[C@H](C)NC(=O)[C@H](CCCCNC(=O)COCCOCCNC(=O)COCCOCCNC(=O)CC[C@H](NC(=O)CCCCCCCCCCCCCCCCCCC(=O)O)C(=O)O)NC(=O)[C@H](CCC(N)=O)NC(=O)[C@H](C)NC(=O)[C@@H](NC(=O)[C@H](CCCCN)NC(=O)[C@H](CC(=O)O)NC(=O)[C@H](CC(C)C)NC(=O)C(C)(C)NC(=O)[C@@H](NC(=O)[C@H](CO)NC(=O)[C@H](Cc1ccc(O)cc1)NC(=O)[C@H](CC(=O)O)NC(=O)[C@H](CO)NC(=O)[C@@H](NC(=O)[C@H](Cc1ccccc1)NC(=O)[C@@H](NC(=O)CNC(=O)[C@H](CCC(=O)O)NC(=O)CCNC(=O)C(C)(C)C1CCCCC1)[C@@H](C)O)[C@@H](C)O)[C@@H](C)CC)[C@@H](C)CC)C(C)C)C(=O)N[C@@H](C)C(=O)NCC(=O)NCC(=O)N1CCC[C@H]1C(=O)N[C@@H](CO)C(=O)N[C@@H](CO)C(=O)NCC(=O)N[C@@H](C)C(=O)N1CCC[C@H]1C(=O)N1CCC[C@H]1C(=O)N1CCC[C@H]1C(=O)N[C@@H](CO)C(N)=O [Compound 205] ({X78-βAla}-EGTFTSDYSI[Aib]LDKIAQK([AEEA-AEEA-γGlu-C20 diacid])AFVQWLIAGGPSSGAPPPS-NH2) | 1 to 10 | 99 | 10 to 100 | 99 | > 1000 | > 1000
5 | CC[C@H](C)[C@H](NC(=O)[C@H](CC(C)C)NC(=O)[C@H](Cc1c[nH]c2ccccc12)NC(=O)[C@H](CCC(N)=O)NC(=O)[C@@H](NC(=O)[C@H](Cc1ccccc1)NC(=O)[C@H](C)NC(=O)[C@H](CCCCNC(=O)COCCOCCNC(=O)COCCOCCNC(=O)CC[C@H](NC(=O)CCCCCCCCCCCCCCCCCCC(=O)O)C(=O)O)NC(=O)[C@H](CCC(N)=O)NC(=O)[C@H](C)NC(=O)[C@@H](NC(=O)[C@H](CCCCN)NC(=O)[C@H](CC(=O)O)NC(=O)[C@H](CC(C)C)NC(=O)C(C)(C)NC(=O)[C@@H](NC(=O)[C@H](CO)NC(=O)[C@H](Cc1ccc(O)cc1)NC(=O)[C@H](CC(=O)O)NC(=O)[C@H](CO)NC(=O)[C@@H](NC(=O)[C@H](Cc1ccccc1)NC(=O)[C@@H](NC(=O)CNC(=O)[C@H](CCC(=O)O)NC(=O)CCNC(=O)C1(c2cccc(F)c2)CC1)[C@@H](C)O)[C@@H](C)O)[C@@H](C)CC)[C@@H](C)CC)C(C)C)C(=O)N[C@@H](C)C(=O)NCC(=O)NCC(=O)N1CCC[C@H]1C(=O)N[C@@H](CO)C(=O)N[C@@H](CO)C(=O)NCC(=O)N[C@@H](C)C(=O)N1CCC[C@H]1C(=O)N1CCC[C@H]1C(=O)N1CCC[C@H]1C(=O)N[C@@H](CO)C(N)=O [Compound 206] ({X15-βAla}-EGTFTSDYSI[Aib]LDKIAQK([AEEA-AEEA-γGlu-C20 diacid])AFVQWLIAGGPSSGAPPPS-NH2) | 1 to 10 | 98 | 10 to 100 | 106 | > 1000 | > 1000
